From patent US20260116867A1, “PROTEOLYSIS TARGETING CHIMERAS FOR HUMAN PREGNANE X RECEPTOR AND FOR DEGRADATION OF GSPT1” (ST. JUDE CHILDREN'S RESEARCH HOSPITAL, priority 2022, published 2026)
“Also recorded” adds a separate entry of the source.

Experiments:
PXR = target: T1, PXR (Homo sapiens, UniProt O75469); test: cell-based hPXR inverse agonistic assay
T1 sequence (O75469 1-434): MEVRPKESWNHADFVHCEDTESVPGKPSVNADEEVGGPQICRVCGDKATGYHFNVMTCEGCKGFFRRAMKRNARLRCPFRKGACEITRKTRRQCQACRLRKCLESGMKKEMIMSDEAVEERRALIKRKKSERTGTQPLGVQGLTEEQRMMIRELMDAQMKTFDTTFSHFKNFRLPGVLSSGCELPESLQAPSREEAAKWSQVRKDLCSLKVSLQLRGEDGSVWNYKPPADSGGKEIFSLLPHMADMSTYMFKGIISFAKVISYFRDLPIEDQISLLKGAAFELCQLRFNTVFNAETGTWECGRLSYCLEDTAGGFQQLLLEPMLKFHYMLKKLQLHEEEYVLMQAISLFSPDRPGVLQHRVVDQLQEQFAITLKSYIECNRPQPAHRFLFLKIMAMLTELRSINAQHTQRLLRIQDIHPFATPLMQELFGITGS

GSPT1 = target: T2, GSPT1 (Homo sapiens, UniProt P15170+Q96SW2); test: Western blot of GSPT1 protein in SNU—C4 3xFLAG-PXR KI cells; type: cell-based
T2 construct: endogenous in cells
Experimental: The following day, DMSO or compounds were added to result in 0.5% DMSO and the indicated compound concentrations, and cells were incubated for the indicated time points. Cells were lysed and subjected to western blotting as above using antibodies against FLAG (Sigma-Aldrich, cat. #F3165, 1:2,000 dilution), GSPT1 (Abcam, cat. #ab126090, 1:4,000 dilution), and R-Actin (Cell Signaling Technology, cat. #4967, 1:2,000 dilution).

PXR RNA = PXR RNA level in SNU—C4 3xFLAG-PXR KI cells; type: cell-based, human
[1] = test system: SNU—C4 3xFLAG-PXR KI cells; test: TMT-MS whole-proteome quantification in SNU—C4 3xFLAG-PXR KI cells; type: cell-based, human; conditions: 5 μM, 12 h vs DMSO; 9,692 proteins detected
Experimental: The next day, 0.5% DMSO or 5 μM SJPYT-195 was added to triplicate dishes. After 12 h, the media were removed, cells were washed twice with ice cold PBS, 500 μL of 50 mM HEPES (pH 8.0) and 8 M urea was added to each dish, cells were scraped and transferred to 1.5 mL tubes, and the tubes were frozen on dry ice and stored at −80° C. Processing for TMT-MS was conducted according to a previously optimized protocol. To profile the whole proteome, the cell lysates (approximately 100 μg of protein per sample) were proteolyzed with Lys-C(Wako) at an enzyme-to-substrate ratio of 1:100 (w/w) for 3 h at room temperature. Samples were diluted with 50 mM HEPES (pH 8.5) to a final 2 M urea concentration. […]
Dried peptides were resuspended in 50 μL 100 mM HEPES (pH 8.5) and labeled with TMTpro 16plex Label Reagents [Thermo Fisher Scientific, 10 μg/μL in 100% ACN, 1:2 (w/w) ratio, room temperature for 1 h]. […] Fractions were dried in SpeedVac and resuspended in 5 μL 5% FA/1% trifluoroacetic acid immediately prior to mass spectrometry and quantitation analysis. […]
MS raw files were converted to mzXML files, and database searches were performed against Uniprot HUMAN protein database using our in-house developed JUMP pipeline. […] TMT-based quantification and statistical analysis were performed based on our previous method. […]

T2 sequence (P15170 1-637 isoform P15170-3): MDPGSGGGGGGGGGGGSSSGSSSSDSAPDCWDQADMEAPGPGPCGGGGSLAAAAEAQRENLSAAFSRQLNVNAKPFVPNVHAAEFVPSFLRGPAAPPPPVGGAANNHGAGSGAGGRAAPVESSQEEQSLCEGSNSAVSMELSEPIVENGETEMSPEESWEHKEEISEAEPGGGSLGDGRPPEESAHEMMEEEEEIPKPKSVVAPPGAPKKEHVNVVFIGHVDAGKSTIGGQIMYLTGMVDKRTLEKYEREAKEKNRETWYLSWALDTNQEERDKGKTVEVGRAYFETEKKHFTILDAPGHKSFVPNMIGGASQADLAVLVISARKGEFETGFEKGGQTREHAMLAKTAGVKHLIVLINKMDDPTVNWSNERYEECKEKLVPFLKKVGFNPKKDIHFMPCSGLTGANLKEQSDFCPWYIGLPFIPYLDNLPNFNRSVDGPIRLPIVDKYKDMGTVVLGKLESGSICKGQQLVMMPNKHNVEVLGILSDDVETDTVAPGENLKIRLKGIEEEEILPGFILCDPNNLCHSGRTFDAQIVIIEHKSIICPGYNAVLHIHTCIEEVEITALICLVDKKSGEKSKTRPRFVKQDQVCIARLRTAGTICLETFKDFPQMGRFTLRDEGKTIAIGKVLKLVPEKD
T2 sequence (Q96SW2 whole entry): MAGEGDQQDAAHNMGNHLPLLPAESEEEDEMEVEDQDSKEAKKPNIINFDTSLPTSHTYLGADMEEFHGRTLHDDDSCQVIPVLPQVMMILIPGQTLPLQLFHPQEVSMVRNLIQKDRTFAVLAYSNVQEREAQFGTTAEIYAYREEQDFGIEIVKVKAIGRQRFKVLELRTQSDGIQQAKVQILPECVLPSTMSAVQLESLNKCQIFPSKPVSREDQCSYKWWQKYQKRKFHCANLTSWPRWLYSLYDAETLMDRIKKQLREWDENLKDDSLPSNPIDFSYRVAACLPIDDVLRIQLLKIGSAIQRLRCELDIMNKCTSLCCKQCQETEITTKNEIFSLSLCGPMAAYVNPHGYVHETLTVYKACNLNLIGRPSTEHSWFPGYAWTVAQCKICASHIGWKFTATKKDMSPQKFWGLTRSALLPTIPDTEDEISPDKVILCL
T2 sequence (Q16531 whole entry partner): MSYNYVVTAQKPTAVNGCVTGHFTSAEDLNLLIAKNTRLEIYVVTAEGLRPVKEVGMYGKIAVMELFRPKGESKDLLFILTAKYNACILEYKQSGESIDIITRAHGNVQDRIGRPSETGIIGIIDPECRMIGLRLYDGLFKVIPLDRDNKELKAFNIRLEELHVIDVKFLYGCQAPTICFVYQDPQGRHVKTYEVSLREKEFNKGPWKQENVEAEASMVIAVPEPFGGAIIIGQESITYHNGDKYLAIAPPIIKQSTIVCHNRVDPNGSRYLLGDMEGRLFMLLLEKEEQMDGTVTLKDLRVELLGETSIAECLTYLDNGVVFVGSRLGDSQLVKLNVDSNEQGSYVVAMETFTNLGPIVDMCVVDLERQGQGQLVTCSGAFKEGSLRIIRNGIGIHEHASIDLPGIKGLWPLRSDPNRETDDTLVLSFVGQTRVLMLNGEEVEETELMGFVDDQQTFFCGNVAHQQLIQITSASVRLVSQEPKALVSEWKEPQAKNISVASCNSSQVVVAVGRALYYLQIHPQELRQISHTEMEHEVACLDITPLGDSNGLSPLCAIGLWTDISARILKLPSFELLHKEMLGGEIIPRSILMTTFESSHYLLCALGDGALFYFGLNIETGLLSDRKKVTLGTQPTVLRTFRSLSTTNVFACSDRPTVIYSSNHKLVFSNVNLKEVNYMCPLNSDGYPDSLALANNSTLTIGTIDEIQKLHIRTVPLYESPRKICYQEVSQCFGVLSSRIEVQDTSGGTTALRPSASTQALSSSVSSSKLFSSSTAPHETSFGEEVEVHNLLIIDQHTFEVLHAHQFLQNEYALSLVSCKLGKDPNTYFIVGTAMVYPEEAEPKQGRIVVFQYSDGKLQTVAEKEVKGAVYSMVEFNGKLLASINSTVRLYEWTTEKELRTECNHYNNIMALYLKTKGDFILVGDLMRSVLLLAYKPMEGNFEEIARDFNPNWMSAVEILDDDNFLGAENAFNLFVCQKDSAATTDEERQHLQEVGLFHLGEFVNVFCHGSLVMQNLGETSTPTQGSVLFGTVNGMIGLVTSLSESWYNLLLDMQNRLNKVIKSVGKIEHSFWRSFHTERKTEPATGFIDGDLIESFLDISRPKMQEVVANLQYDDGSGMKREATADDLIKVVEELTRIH

Question: With COc1ccc(OC)c(-n2nnc(C(=O)Nc3cc(Oc4cccc5c4C(=O)N(C4CCC(=O)NC4=O)C5=O)cc(C(C)(C)C)c3)c2C)c1 (centres unmarked) [Compound M4, N-(3-(tert-butyl)-5-((2-(2,6-dioxopiperidin-3-yl)-1,3-dioxoisoindolin-4-yl)oxy)phenyl)-1-(2,5-dimethoxyphenyl)-5-methyl-1H-1,2,3-triazole-4-carboxamide] as the compound, how does the inhibition at 10 µM (PXR; read-out: Inverse agonist (% inhibition at 10 μM)) read?
Answer: Its inhibition at 10 µM is 133%.

Question: What about the IC50 (PXR; read-out: Inverse agonist (IC50/μM)) of the same compound?
Answer: The IC50 was 0.18 ± 0.055 µM.

Question: What about the “GSPT1 Loss at 10 μM (% ± SD)” value (GSPT1; 10 μM compound, calculated from western blots FIG. 9A) of the same compound?
Answer: The value was 100 ± 0.1%.

Question: What about the “activity on GSPT1, fold lower than that of CC-885” value (GSPT1; western blot, FIG. 6D-E) of the same compound?
Answer: The value was about 100 fold.

Question: And the “GSPT1 degradation (in words)” value (GSPT1; western blot, SNU—C4 3xFLAG-PXR KI cells, listed as SJPYT-195)?
Answer: Its value is “deplete GSPT1 at concentrations much lower than those required to reduce PXR; also recorded: most potent inducer of GSPT1 degradation”.

Question: And the “reduction of PXR RNA” value (PXR RNA; 5 μM, 12 h)?
Answer: Its value is “negligible reduction”.

Question: What about the “PXR RNA level” value (PXR RNA; time-course, FIG. 5C) of the same compound?
Answer: Its value is “drastically reduced PXR RNA level”.

Question: And the “proteins changed at whole-proteome scale (selectivity)” value [1]?
Answer: Its value is “five down-regulated proteins (GSPT1, GSPT2, ZFP91, CYP1A1, and BRIP1) and one upregulated protein (FOS)”.
